Measured values: patent EP4755888A1 (ILAb Co., Ltd., priority 2023, dated 2025)

Target: PD-1/PD-L1 (Homo sapiens, UniProt Q9NZQ7)
Assay: TR-FRET PD-1/PD-L1 binding inhibition at the molecular level (free proteins)
Settings: Tag1-PD-L1 and Tag2-PD-1 proteins, twelve concentrations from 200 nM, 2 hours at room temperature, read-out: FRET assay (IC50)
Outline: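 HTRF read-out at 665/620 nm after 2 h at room temperature. Detection used anti-Tag1 Eu cryptate plus anti-Tag2 XL665 antibodies. Tagged PD-L1 and PD-1 proteins were pre-mixed with compound across twelve […] 1:2 dilutions starting at 200 nM.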

Chain of PD-1/PD-L1 (Q9NZQ7 19-238 limits assumed): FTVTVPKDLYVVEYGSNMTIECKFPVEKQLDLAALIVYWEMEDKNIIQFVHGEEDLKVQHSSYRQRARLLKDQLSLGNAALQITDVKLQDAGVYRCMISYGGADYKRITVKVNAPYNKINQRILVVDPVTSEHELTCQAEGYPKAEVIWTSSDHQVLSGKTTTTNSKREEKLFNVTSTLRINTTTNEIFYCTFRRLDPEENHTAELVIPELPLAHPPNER

| SMILES | IC50 [nM] |
| --- | --- |
| Cn1c(C(=O)Nc2cccc(-c3cccc(NC(=O)c4cc5n(n4)CCCC5NC(C)(C)C(=O)O)c3Cl)c2Cl)nc2c1CCN(CCC13CCC(C(=O)O)(CC1)C3)C2 (centres unmarked) [Compound 60, 4-(2-(2-((3'-(4-((2-carboxypropan-2-yl)amino)-4,5,6,7-tetrahydropyrazolo[1,5-a]pyridine-2-carboxamido)-2,2'-dichloro-[1,1'-biphenyl]-3-yl)carbamoyl)-1-methyl-6,7-dihydro-1H-imidazo[4,5-c]pyridin-5(4H)-yl)ethyl)bicyclo[2.2.1]heptane-1-carboxylic acid] | < 10 |
| Cc1nc(Nc2cccc(-c3cccc(NC(=O)c4cc5n(n4)CCC[C@@H]5N4CC(C(=O)O)C4)c3Cl)c2Cl)c2ncccc2n1 [Compound 281, (S)-1-(2-((2,2'-dichloro-3'-((2-methylpyrido[3,2-d]pyrimidin-4-yl)amino)-[1,1'-biphenyl]-3-yl)carbamoyl)-4,5,6,7-tetrahydropyrazolo[1,5-a]pyridin-4-yl)azetidine-3-carboxylic acid] | < 10 |
| Cc1c(NC(=O)c2cc3n(n2)CCCC3=O)cccc1-c1cccc(NC(=O)c2cc3n(n2)CCCC3NCCO)c1C (centres unmarked) [Compound 3, N-(2,2'-dimethyl-3'-(4-oxo-4,5,6,7-tetrahydropyrazolo[1,5-a]pyridine-2-carboxamido)-[1,1'-biphenyl]-3-yl)-4-((2-hydroxyethyl)amino)-4,5,6,7-tetrahydropyrazolo[1,5-a]pyridine-2-carboxamide] | < 10 |
| Cc1c(NC(=O)c2ccc(CN3CC[C@@H](O)C3)cn2)cccc1-c1cccc(NC(=O)c2cc3n(n2)CCN(CC(=O)O)C3)c1C [Compound 326, (R)-2-(2-((3'-(5-((3-hydroxypyrrolidin-1-yl)methyl)picolinamido)-2,2'-dimethyl-[1,1'-biphenyl]-3-yl)carbamoyl)-6,7-dihydropyrazolo[1,5-a]pyrazin-5(4H)-yl)acetic acid] | < 10 |
| CC(C)(N[C@@H]1CCCn2nc(C(=O)Nc3cccc(-c4cccc(Nc5nc(C(F)(F)F)nc6cc(CN7CC[C@@H](O)C7)cnc56)c4Cl)c3Cl)cc21)C(=O)O [Compound 341, 2-(((R)-2-((2,2'-dichloro-3'-((7-(((R)-3-hydroxypyrrolidin-1-yl)methyl)-2-(trifluoromethyl)pyrido[3,2-d]pyrimidin-4-yl)amino)-[1,1'-biphenyl]-3-yl)carbamoyl)-4,5,6,7-tetrahydropyrazolo[1,5-a]pyridin-4-yl)amino)-2-methylpropanoic acid] | 10 to 100 |
| O=C(Nc1cccc(-c2cccc(Nc3nc(C(F)F)nc4cc(CN5CC[C@@H](O)C5)cnc34)c2Cl)c1Cl)c1cc2n(n1)CCC[C@@H]2N1CC(C(=O)O)C1 [Compound 261, 1-((S)-2-((2,2'-dichloro-3'-((2-(difluoromethyl)-7-(((R)-3-hydroxypyrrolidin-1-yl)methyl)pyrido[3,2-d]pyrimidin-4-yl)amino)-[1,1'-biphenyl]-3-yl)carbamoyl)-4,5,6,7-tetrahydropyrazolo[1,5-a]pyridin-4-yl)azetidine-3-carboxylic acid] | < 10 |
| Cc1c(Nc2nccc3cc(CN4CC[C@@H](O)C4)cnc23)cccc1-c1cccc(NC(=O)c2cc3n(n2)CCCC3N2CCC(C(=O)O)CC2)c1Cl (stereo partly drawn) [Compound 35, 1-(2-((2-chloro-3'-((3-(((R)-3-hydroxypyrrolidin-1-yl)methyl)-1,7-naphthyridin-8-yl)amino)-2'-methyl-[1,1'-biphenyl]-3-yl)carbamoyl)-4,5,6,7-tetrahydropyrazolo[1,5-a]pyridin-4-yl)piperidine-4-carboxylic acid] | < 10 |
| Cn1c(C(=O)Nc2cccc(-c3cccc(NC(=O)c4cc5n(n4)CCC[C@@H]5N4CC[C@@H](C(=O)O)C4)c3Cl)c2Cl)nc2c1CCN(CCC13CCC(C(=O)O)(CC1)C3)C2 [Compound 307, (R)-1-((S)-2-((3'-(5-(2-(4-carboxybicyclo[2.2.1]heptan-1-yl)ethyl)-1-methyl-4,5,6,7-tetrahydro-1H-imidazo[4,5-c]pyridine-2-carboxamido)-2,2'-dichloro-[1,1'-biphenyl]-3-yl)carbamoyl)-4,5,6,7-tetrahydropyrazolo[1,5-a]pyridin-4-yl)pyrrolidine-3-carboxylic acid] | < 10 |

Now from value to molecule:

| IC50 [nM] | SMILES |
| --- | --- |
| 10 to 100 | COc1cc(-c2cccc(-c3cccc(NC(=O)c4cc5n(n4)CCCC5O)c3Cl)c2Cl)cc(F)c1CNCCNC(C)=O (centres unmarked) [Compound 116, N-(4"-(((2-acetamidoethyl)amino)methyl)-2,2'-dichloro-3"-fluoro-5"-methoxy-[1,1':3',1"-terphenyl]-3-yl)-4-hydroxy-4,5,6,7-tetrahydropyrazolo[1,5-a]pyridine-2-carboxamide] |
| < 10 | Cc1c(NC(=O)c2cc3n(n2)CCCC3NCC(=O)O)cccc1-c1cccc(-c2nc3cc(CN4CC[C@@H](C(=O)O)C4)cc(C#N)c3o2)c1C (stereo partly drawn) [Compound 66, (3R)-1-((2-(3'-(4-((carboxymethyl)amino)-4,5,6,7-tetrahydropyrazolo[1,5-a]pyridine-2-carboxamido)-2,2'-dimethyl-[1,1'-biphenyl]-3-yl)-7-cyanobenzo[d]oxazol-5-yl)methyl)pyrrolidine-3-carboxylic acid] |
| < 10 | Cc1c(NC(=O)c2cc3n(n2)CCCC3O)cccc1-c1cccc(Nc2nc(C(F)F)nc3cc(CN4CC[C@@H](O)C4)cnc23)c1C (stereo partly drawn) [Compound 129, N-(3'-((2-(difluoromethyl)-7-(((R)-3-hydroxypyrrolidin-1-yl)methyl)pyrido[3,2-d]pyrimidin-4-yl)amino)-2,2'-dimethyl-[1,1'-biphenyl]-3-yl)-4-hydroxy-4,5,6,7-tetrahydropyrazolo[1,5-a]pyridine-2-carboxamide] |
| < 10 | COc1cc(-c2cccc(-c3cccc(NC(=O)c4cc5n(n4)CCCC5NCC(=O)O)c3Cl)c2Cl)cc(F)c1CN1CC[C@@H](O)C1 (stereo partly drawn) [Compound 187, 2-((2-((2,2'-dichloro-3"-fluoro-4"-(((R)-3-hydroxypyrrolidin-1-yl)methyl)-5"-methoxy-[1,1':3',1"-terphenyl]-3-yl)carbamoyl)-4,5,6,7-tetrahydropyrazolo[1,5-a]pyridin-4-yl)amino)acetic acid] |
| < 10 | COc1cc(C(=O)Nc2cccc(-c3cccc(NC(=O)c4cc5n(n4)CCCC5N4CC[C@@H](C(=O)O)C4)c3Cl)c2Cl)cc(F)c1CNCCO (stereo partly drawn) [Compound 194, (3R)-1-(2-((2,2'-dichloro-3'-(3-fluoro-4-(((2-hydroxyethyl)amino)methyl)-5-methoxybenzamido)-[1,1'-biphenyl]-3-yl)carbamoyl)-4,5,6,7-tetrahydropyrazolo[1,5-a]pyridin-4-yl)pyrrolidine-3-carboxylic acid] |
| < 10 | COc1cc(-c2cccc(-c3cccc(NC(=O)c4cc5n(n4)CCCC5N4CC[C@@H](O)C4)c3C)c2C)cc(F)c1CNC(C)(C)C(=O)O (stereo partly drawn) [Compound 115, 2-(((3-fluoro-3"-(4-((R)-3-hydroxypyrrolidin-1-yl)-4,5,6,7-tetrahydropyrazolo[1,5-a]pyridine-2-carboxamido)-5-methoxy-2',2"-dimethyl-[1,1':3',1"-terphenyl]-4-yl)methyl)amino)-2-methylpropanoic acid] |
| < 10 | COc1cc(C(=O)Nc2cccc(-c3cccc(NC(=O)c4cc5n(n4)CCCC5NCC(=O)O)c3Cl)c2Cl)cc(F)c1CN1CC[C@@H](O)C1 (stereo partly drawn) [Compound 192, 2-((2-((2,2'-dichloro-3'-(3-fluoro-4-(((R)-3-hydroxypyrrolidin-1-yl)methyl)-5-methoxybenzamido)-[1,1'-biphenyl]-3-yl)carbamoyl)-4,5,6,7-tetrahydropyrazolo[1,5-a]pyridin-4-yl)amino)acetic acid] |
| < 10 | CC(=O)NCCNC1CCCn2nc(C(=O)Nc3cccc(-c4cccc(Nc5nccc6cc(CN7CC[C@@H](O)C7)cnc56)c4C)c3C)cc21 (stereo partly drawn) [Compound 12, 4-((2-acetamidoethyl)amino)-N-(3'-((3-(((R)-3-hydroxypyrrolidin-1-yl)methyl)-1,7-naphthyridin-8-yl)amino)-2,2'-dimethyl-[1,1'-biphenyl]-3-yl)-4,5,6,7-tetrahydropyrazolo[1,5-a]pyridine-2-carboxamide] |
| < 10 | Cc1c(NC(=O)c2cc3n(n2)CCCC3O)cccc1-c1cccc(NC(=O)c2cc3n(n2)CCCC3NCCO)c1C (centres unmarked) [Compound 3-1, 4-hydroxy-N-(3'-(4-((2-hydroxyethyl)amino)-4,5,6,7-tetrahydropyrazolo[1,5-a]pyridine-2-carboxamido)-2,2'-dimethyl-[1,1'-biphenyl]-3-yl)-4,5,6,7-tetrahydropyrazolo[1,5-a]pyridine-2-carboxamide] |
| 10 to 100 | Cc1c(NC(=O)c2cc3n(n2)CCCC3N2CC[C@@H](O)C2)cccc1-c1cccc(Nc2nccc3cc(CN4CC[C@@H](O)C4)cnc23)c1Cl (stereo partly drawn) [Compound 38, N-(2'-chloro-3'-((3-(((R)-3-hydroxypyrrolidin-1-yl)methyl)-1,7-naphthyridin-8-yl)amino)-2-methyl-[1,1'-biphenyl]-3-yl)-4-((R)-3-hydroxypyrrolidin-1-yl)-4,5,6,7-tetrahydropyrazolo[1,5-a]pyridine-2-carboxamide] |
| < 10 | Cc1c(NC(=O)c2cc3n(n2)CCC[C@@H]3N2CCC(C(=O)O)CC2)cccc1-c1cccc(Nc2nc(C(F)F)nc3cc(CN4CC[C@@H](O)C4)cnc23)c1C [Compound 267, 1-((S)-2-((3'-((2-(difluoromethyl)-7-(((R)-3-hydroxypyrrolidin-1-yl)methyl)pyrido[3,2-d]pyrimidin-4-yl)amino)-2,2'-dimethyl-[1,1'-biphenyl]-3-yl)carbamoyl)-4,5,6,7-tetrahydropyrazolo[1,5-a]pyridin-4-yl)piperidine-4-carboxylic acid] |
| 10 to 100 | Cc1c(NC(=O)c2ccc(CN3CC[C@@H](O)C3)cn2)cccc1-c1cccc(NC(=O)c2cc3n(n2)CCC[C@H]3N2CCCC[C@@H]2CO)c1C [Compound 309-1, (R)-4-((R)-2-(hydroxymethyl)piperidin-1-yl)-N-(3'-(5-(((R)-3-hydroxypyrrolidin-1-yl)methyl)picolinamido)-2,2'-dimethyl-[1,1'-biphenyl]-3-yl)-4,5,6,7-tetrahydropyrazolo[1,5-a]pyridine-2-carboxamide] |
